As a reminder, the inhibition is the percentage by which the read-out fell short of the control. A high value points to a response far below the control.

Molecules are shown by their SMILES.

The target of the assay is T1, human CA-II (Homo sapiens, UniProt P00918).
T1 construct: purchased Sigma-Aldrich C6165
Description: Carbonic Anhydrase-II (CA-II) Fluorescence Polarization Tight Binding Assay-Kd Determination. As to conditions: inhibitor concentration 2.5 nM. As for the experimental part: Assays were conducted in a final volume of 100 μL in 50 mM Tris/HCl (pH 7.6), 100 mM Na2SO4 and 0.005% Tween-20 in a 96-well black assay plate. […] The assay plate was
The Kd binding was calculated using GraphPad Prism and Morrison tight binding ligand equation.
In general terms: Fluorescence polarisation rises when a labelled molecule tumbles more slowly, as on binding a larger partner.
`COC[C@@H](NCc1nc(Cc2ccccc2)n(-c2ccc(S(N)(=O)=O)cc2F)n1)c1ccccc1` [Example T-47, 4-[5-benzyl-3-({[(1S)-2-methoxy-1-phenylethyl]amino}methyl)-1H-124-triazol-1-yl]-3-fluorobenzenesulfonamide] gave an inhibition at 0.0025 µM of 41%.
The same measure for `NS(=O)(=O)c1ccc(-n2nc(CN[C@H](CO)Cc3ccccc3)nc2Cc2ccccc2)c(F)c1` [Example T-44, 4-[5-benzyl-3-({[(1S)-1-benzyl-2-hydroxyethyl]amino}methyl)-1H-124-triazol-1-yl]-3-fluorobenzenesulfonamide]: 49%; for `Cc1ccn(CCNCc2nc(Cc3ccccc3)n(-c3ccc(S(N)(=O)=O)cc3F)n2)n1` [Example T-68, 4-[5-benzyl-3-({[2-(3-methyl-1H-pyrazol-1-yl)ethyl]amino}methyl)-1H-124-triazol-1-yl]-3-fluorobenzenesulfonamide]: 55%.
`NS(=O)(=O)c1ccc(-n2nc(CNCCOc3ccccc3F)nc2Cc2ccccc2)c(F)c1` [Example T-54] returned an inhibition at 0.0025 µM of 38%.
In the case of `NS(=O)(=O)c1ccc(-n2nc(CN[C@H]3CCCC[C@H]3O)nc2Cc2ccccc2)c(F)c1` [Example T-53, 4-[5-benzyl-3-({[(1S2R)-2-hydroxycyclohexyl]amino}methyl)-1H-124-triazol-1-yl]-3-fluorobenzenesulfonamide] it was 75%; in that of `NS(=O)(=O)c1ccc(-n2nc(CNCCc3cccc(F)c3)nc2Cc2ccccc2)c(F)c1` [Example T-48, 4-[5-benzyl-3-({[2-(3-fluorophenyl)ethyl]amino}methyl)-1H-124-triazol-1-yl]-3-fluorobenzenesulfonamide], 50%.
In the case of `Cc1cccc(CCNCc2nc(Cc3ccccc3)n(-c3ccc(S(N)(=O)=O)cc3F)n2)c1` [Example T-66, 4-[5-benzyl-3-({[2-(3-methylphenyl)ethyl]amino}methyl)-1H-124-triazol-1-yl]-3-fluorobenzenesulfonamide] it was 52%; in that of `COc1ccc(CCNCc2nc(Cc3ccccc3)n(-c3ccc(S(N)(=O)=O)cc3F)n2)cc1` [Example T-62, 4-[5-benzyl-3-({[2-(4-methoxyphenyl)ethyl]amino}methyl)-1H-124-triazol-1-yl]-3-fluorobenzenesulfonamide], 51%.
For `C[C@H](NCc1nc(Cc2ccccc2)n(-c2ccc(S(N)(=O)=O)cc2F)n1)[C@H](O)c1ccccc1` [Example T-50, 4-[5-benzyl-3-({[(1S2R)-2-hydroxy-1-methyl-2-phenylethyl]amino}methyl)-1H-124-triazol-1-yl]-3-fluorobenzenesulfonamide], the inhibition at 0.0025 µM is 63%.
The same measure for `Cc1cc(CNCc2nc(Cc3ccccc3)n(-c3ccc(S(N)(=O)=O)cc3F)n2)ccc1F` [Example T-49, 4-(5-benzyl-3-{[(4-fluoro-3-methylbenzyl)amino]methyl}-1H-124-triazol-1-yl)-3-fluorobenzenesulfonamide]: 49%.
For the compound `CCCN(C)Cc1nc(Cc2ccccc2)n(-c2ccc(S(N)(=O)=O)cc2F)n1` [Example T-42, 4-(5-benzyl-3-{[methyl(propyl)amino]methyl}-1H-124-triazol-1-yl)-3-fluorobenzenesulfonamide], the inhibition at 0.0025 µM worked out at 42%.
In the case of `COC[C@H]1CCC[C@H]1NCc1nc(Cc2ccccc2)n(-c2ccc(S(N)(=O)=O)cc2F)n1` [Example T-71, 4-[5-benzyl-3-({[(1R2S)-2-(methoxymethyl)cyclopentyl]amino}methyl)-1H-124-triazol-1-yl]-3-fluorobenzenesulfonamide] it was 47%; in that of `CC(C)CCNCc1nc(Cc2ccccc2)n(-c2ccc(S(N)(=O)=O)cc2F)n1` [Example T-59, 4-(5-benzyl-3-{[(3-methylbutyl)amino]methyl}-1H-124-triazol-1-yl)-3-fluorobenzenesulfonamide], 53%.

(Values after US20100256357A1, “HETEROCYCLES USEFUL AS INHIBITORS OF CARBONIC ANHYDRASE” (Agouron Pharmaceuticals, Inc., priority 2006, published 2010).)
